In one data set the target is T1, TcPRAC (Trypanosoma cruzi, UniProt Q4DA80).
T1 construct: implied only by nickel IMAC purification; made in house; host or cells: E. coli BL21 (DE3)
The data set can be described thus: L-proline racemization assay by polarimetry. The format is biochemical. To be noted: for potency relative to PYC in terms of TcPRAC inhibition: based on the DAAOx test and polarimetry; for Racemization Inhibition: L-Proline 20 mM, 30 minutes 37°C, 0.25 µM TcPRAC. On the procedure:
Briefly, classical assays of Proline racemization induced by TcPRAC were performed in tubes in a final volume of 1.5 ml and optical rotations measured in a polarimeter 241MC (Perkin Elmer). Parallel assays of Proline racemization were transposed into microplates in a final volume of 100 µl, as follows: serial dilutions of L- Proline ranging from 40 mM to 2.5 mM were prepared in 0.2 M sodium acetate pH 6.0 containing 0.25 mM rTcPRAC and loaded into microplate wells in the presence or in the absence of 0 - 20 µM pyrrole-2 carboxylic acid (PYC) or of similar dilutions of unknown potential inhibitors. Specific control wells were included omitting the TcPRAC and/or the PYC.
The values presented in Table 2B correspond to racemization reactions performed in the absence or in the presence of the different inhibitors. Note that 6 µM PYC is necessary to inhibit 100 % of the racemization of 10-20 mM L-proline. Briefly, L-Proline (20 mM) were incubated for 30 minutes at 37°C in test tubes with or without 0.25 µM TcPRAC in 0.2 M sodium acetate pH 6. Reactions were stopped by heating at 65° C for 10 minutes. Reaction volumes were analyzed for D-Proline formation, by measuring optical rotations in a polarimeter (365nm).

For a further data set, the system named is Vero cells. In words: Toxicity for Vero cells, Trypan Blue exclusion. The format is cell-based, green monkey. To be noted: 10 µM, 48h. On the procedure:
Finally both the compounds OxoPA and Br-OxoPA were tested at a concentration of 10 µM for toxicity of Vero cells for 48h. Both compounds are not toxic as evaluated by Trypan Blue exclusion (not shown).

Data set [1] deals with T.cruzi CL Brener (clone F11-F5). In words: Intracellular parasite fate: inhibitor added after 17h infection, 48h, Giemsa scoring. The settings on record: 48h after infection; for Mean number of parasites/ cell: 3,9 at 0; for % Infected cells: 39,3 at 0; for Number of parasites/100 cells: 153,15 at 0. It counts as cell-based. On the procedure:
Vero cells (from green monkey kidney) were seeded at a density of 15x10^6 cells per 25cm^2 culture flasks or at 5 x10^4 cells/well into LabTek slides. The cultures were maintained in RPMI 1640 medium supplemented with 5% fetal bovine serum and kept at 37°C in an atmosphere of 5% CO2. Cell culture-derived trypomastigotes from T.cruzi CL Brener (clone F11-F5) were isolated from the supernatant of Vero cells, which had been previously infected with bloodstream trypomastigotes. Vero cell cultures were infected for 17h at 37°C with cultured trypomastigotes at a 10:1 parasite/cell ratio in the presence or in the absence of increasing doses of freshly made dilutions (3-30 µM) of (E)-4-oxopent-2-enoic acid (OxoPA) and its derivative (E)-5-bromo-4-oxopent-2-enoic acid (Br-OxoPA), previously dissolved in dimethyl sulfoxide (DMSO). For comparison, cultures were seeded with or without 10-1000 µM specific proline racemase inhibitor pyrrole-2-carboxylic acid (PYC) also diluted in DMSO. To verify if proline racemase inhibitors could also exert an effect on the parasite intracellular cycle after 17 hours of parasite-host cell interaction, all the wells were then rinsed three times to eliminate all extracellular parasites and new medium was added to the cultures that were incubated for up to 48 hours with fresh dilutions of the inhibitor compounds. After the different treatments, cultures were washed with PBS, fixed and stained with Giemsa. The numbers of infected host cells and of parasites per infected cell were then scored in at least 400 host cells in independent experiments, run in duplicate. Results are expressed as the percentage of infected cells, the mean number of parasites per infected cell or by the endocytic index (EI) which represents the percentage of infected cells multiplied by the mean number of parasites per infected cell.
Additional studies were performed to verify whether TcPRAC inhibition by the new compounds would influence the intracellular fate of the parasite. For this purpose, after infection for 17 hours, the host cells were washed and different ligand concentrations (3µM, 10 µM, 30 µM) were added to the medium and the infection was followed for up to 48 hours. As can be observed in Tables 4A, B and C, after 48 hours of culture treatments, there was a dose-dependent decrease in the number of parasites/ 100 cells, as well as in the percentage of infected cells or yet in the mean number of parasites/cell. […] Table 4A : Number of parasites/100 cells
Vero cells (from green monkey kidney) were seeded at a density of 15x10^6 cells per 25cm2 culture flasks or at 5x10^4 cells/well into LabTek slides. The cultures were maintained in RPMI 1640 medium supplemented with 5% fetal bovine serum and kept at 37°C in an atmosphere of 5% CO2. Cell culture-derived trypomastigotes from T.cruzi CL Brener (clone F11-F5) were isolated from the supernatant of Vero cells, which had been previously infected with bloodstream trypomastigotes. LabTek wells were infected for 17h at 37°C with cultured trypomastigotes at a 10:1 parasite/cell ratio. All the wells were then washed to eliminate all extracellular parasites and new medium was added to the cultures containing or not increasing concentrations of freshly made dilutions of 3-30 µM of OxoPA or Br-OxoPA molecules. Cultures were washed after 48h, fixed and stained with Giemsa.

Data set [2] shares this test system. In words: Vero cell infection by trypomastigotes in the presence of inhibitor (17h), Giemsa scoring. It counts as cell-based. To be noted: Table 5. The arrangement: key: EI = % infected cells × mean parasites per infected cell.

This is an account of results in patent EP2451450B1, “Inhibitors of proline racemase enzymes for the treatment of Trypanosoma spp infections” (Institut Pasteur, priority 2009, dated 2011).

T1 sequence (Q4DA80 32-423): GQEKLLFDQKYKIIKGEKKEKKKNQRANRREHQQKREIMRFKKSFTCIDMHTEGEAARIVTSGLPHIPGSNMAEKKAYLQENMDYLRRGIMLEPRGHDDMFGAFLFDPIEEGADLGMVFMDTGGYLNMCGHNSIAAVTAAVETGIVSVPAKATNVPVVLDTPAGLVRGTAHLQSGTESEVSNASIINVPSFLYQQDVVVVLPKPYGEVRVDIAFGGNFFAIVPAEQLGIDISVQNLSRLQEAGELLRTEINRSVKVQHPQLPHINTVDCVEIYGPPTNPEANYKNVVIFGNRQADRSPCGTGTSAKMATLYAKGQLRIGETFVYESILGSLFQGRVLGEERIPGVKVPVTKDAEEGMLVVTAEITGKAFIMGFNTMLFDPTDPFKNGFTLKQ

Take `O=C(O)/C=C/C(=O)CBr` [Br-OxoPA, (E)-5-bromo-4-oxopent-2-enoic acid]: the “potency relative to PYC in terms of TcPRAC inhibition” value on TcPRAC turned out to be 4 fold. Moreover, the “Racemization Inhibition” value was found to be 50.0% on TcPRAC (ligand 2.5 µM) and 81.3% at TcPRAC (ligand 10.0 µM). Further, the “toxicity of Vero cells” value in the data set with Vero cells is listed as “not toxic”. Besides, the “Mean number of parasites/ cell” value in data set [1] (3 µM) is given as 3,2; in data set [1] (10 µM), 3,1; in data set [1] (30 µM), 2,3. The “% Infected cells” value in data set [1] (3 µM) was 55,3%; in data set [1] (10 µM), 49,8%; in data set [1] (30 µM), 31,0%. Further, the entries for the “Number of parasites/100 cells” value in data set [1] (3 µM), in data set [1] (10 µM) and in data set [1] (30 µM) were 176,5, 155,8 and 69,4, respectively. Besides, the “Endocytic index (EI)” value in data set [2] (Inhibitor concentration (µM) 3) is listed as 78.
With `CC(=O)/C=C/C(=O)O` [OxoPA, (E)-4-oxopent-2-enoic acid], at TcPRAC, the “potency relative to PYC in terms of TcPRAC inhibition” value was found to be 2 fold. In addition, the “Racemization Inhibition” value on TcPRAC (ligand 3.0 µM) came out at 50.0%. In the data set with Vero cells, the “toxicity of Vero cells” value is “not toxic”. In addition, the “Mean number of parasites/ cell” value in data set [1] (3 µM) is 2,9; in data set [1] (10 µM) it was 3,0; in data set [1] (30 µM) it was 2,8. The “% Infected cells” value in data set [1] (3 µM) is reported as 41,3%; in data set [1] (10 µM), 41,3%; in data set [1] (30 µM), 20,0%. For the same compound, the “Number of parasites/100 cells” value in data set [1] (3 µM) is 121,3; in data set [1] (10 µM) it was 129,4; in data set [1] (30 µM) it was 56,1. Also, the “Endocytic index (EI)” value stood at 42 in data set [2] (Inhibitor concentration (µM) 3) and 23 in data set [2] (Inhibitor concentration (µM) 10).
